Data taken from the kinase profiling compilation of Christmann-Franck et al. (2016).
Several values for one entry are separate records, joined by “and”; a condition that tells them apart may be missing. Equal entries are not always repeated.

What was measured:
Experiment in all cases: KINOMEscan competition binding
Details in all cases: compound 10.0 µM
BLK (human) = BLK (human) (UniProt P51451)
CDK14 (human) = CDK14 (human) (UniProt O94921)
CHUK (human) = CHUK (human) (UniProt O15111)
CSF1R (human) = CSF1R (human) (UniProt P07333)
Chain of CSF1R (human) (P07333 whole entry, looked up): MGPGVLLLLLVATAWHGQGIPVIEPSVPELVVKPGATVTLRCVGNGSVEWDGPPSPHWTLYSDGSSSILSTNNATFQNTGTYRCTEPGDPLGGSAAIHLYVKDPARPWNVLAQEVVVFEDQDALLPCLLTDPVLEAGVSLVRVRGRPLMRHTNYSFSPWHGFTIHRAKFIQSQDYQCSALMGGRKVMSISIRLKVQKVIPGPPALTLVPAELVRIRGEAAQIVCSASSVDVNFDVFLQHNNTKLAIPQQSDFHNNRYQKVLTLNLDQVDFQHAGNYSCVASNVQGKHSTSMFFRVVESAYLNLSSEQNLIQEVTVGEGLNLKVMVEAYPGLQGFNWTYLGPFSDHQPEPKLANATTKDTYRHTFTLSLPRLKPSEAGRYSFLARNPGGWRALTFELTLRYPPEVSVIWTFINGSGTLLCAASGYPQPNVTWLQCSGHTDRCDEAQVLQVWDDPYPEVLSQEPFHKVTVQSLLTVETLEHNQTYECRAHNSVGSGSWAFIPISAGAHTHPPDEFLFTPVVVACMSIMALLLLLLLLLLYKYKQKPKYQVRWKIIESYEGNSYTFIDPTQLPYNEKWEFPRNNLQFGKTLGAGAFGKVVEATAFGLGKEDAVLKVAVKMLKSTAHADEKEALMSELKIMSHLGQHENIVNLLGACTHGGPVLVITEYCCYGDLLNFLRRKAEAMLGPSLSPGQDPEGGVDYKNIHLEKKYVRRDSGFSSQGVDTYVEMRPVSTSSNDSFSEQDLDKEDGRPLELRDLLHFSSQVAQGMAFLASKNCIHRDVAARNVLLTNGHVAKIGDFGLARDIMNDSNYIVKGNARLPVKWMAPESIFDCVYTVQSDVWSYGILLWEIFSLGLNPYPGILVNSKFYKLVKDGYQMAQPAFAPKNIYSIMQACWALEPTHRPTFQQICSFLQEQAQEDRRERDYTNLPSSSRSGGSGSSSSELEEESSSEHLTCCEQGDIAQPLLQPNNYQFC

CSNK1E (human) = CSNK1E (human) (UniProt P49674)
Chain of CSNK1E (human) (P49674 whole entry, looked up): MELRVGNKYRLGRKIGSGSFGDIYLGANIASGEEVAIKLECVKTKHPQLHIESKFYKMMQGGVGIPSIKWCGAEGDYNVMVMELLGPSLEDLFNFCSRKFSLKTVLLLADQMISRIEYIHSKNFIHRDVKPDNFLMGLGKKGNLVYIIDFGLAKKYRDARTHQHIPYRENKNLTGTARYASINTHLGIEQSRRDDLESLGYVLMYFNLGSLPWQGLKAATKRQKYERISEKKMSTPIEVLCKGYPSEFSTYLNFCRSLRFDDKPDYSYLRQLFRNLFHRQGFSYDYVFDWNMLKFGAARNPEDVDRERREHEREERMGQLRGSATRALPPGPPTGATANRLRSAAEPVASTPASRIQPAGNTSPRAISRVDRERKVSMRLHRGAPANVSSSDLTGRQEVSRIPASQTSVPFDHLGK

CSNK1G2 (human) = CSNK1G2 (human) (UniProt P78368)
CSNK1G3 (human) = CSNK1G3 (human) (UniProt Q9Y6M4)
Chain of CSNK1G3 (human) (Q9Y6M4 whole entry, looked up): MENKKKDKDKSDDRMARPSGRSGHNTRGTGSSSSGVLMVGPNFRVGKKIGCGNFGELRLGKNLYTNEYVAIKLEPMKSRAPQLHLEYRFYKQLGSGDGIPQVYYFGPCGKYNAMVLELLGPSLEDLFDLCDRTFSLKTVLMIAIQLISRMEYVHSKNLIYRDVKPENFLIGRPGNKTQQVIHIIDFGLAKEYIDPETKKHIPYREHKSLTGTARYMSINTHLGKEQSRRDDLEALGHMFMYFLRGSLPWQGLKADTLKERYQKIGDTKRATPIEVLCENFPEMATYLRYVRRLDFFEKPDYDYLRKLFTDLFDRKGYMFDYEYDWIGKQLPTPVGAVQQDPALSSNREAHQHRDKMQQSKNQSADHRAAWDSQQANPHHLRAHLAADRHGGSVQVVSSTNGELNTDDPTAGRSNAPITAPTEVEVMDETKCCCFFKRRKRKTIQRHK

DCLK2 (human) = DCLK2 (human) (UniProt Q8N568)
EPHA8 (human) = EPHA8 (human) (UniProt P29322)
ERBB4 (human) = ERBB4 (human) (UniProt Q15303)
Chain of ERBB4 (human) (Q15303 whole entry, looked up): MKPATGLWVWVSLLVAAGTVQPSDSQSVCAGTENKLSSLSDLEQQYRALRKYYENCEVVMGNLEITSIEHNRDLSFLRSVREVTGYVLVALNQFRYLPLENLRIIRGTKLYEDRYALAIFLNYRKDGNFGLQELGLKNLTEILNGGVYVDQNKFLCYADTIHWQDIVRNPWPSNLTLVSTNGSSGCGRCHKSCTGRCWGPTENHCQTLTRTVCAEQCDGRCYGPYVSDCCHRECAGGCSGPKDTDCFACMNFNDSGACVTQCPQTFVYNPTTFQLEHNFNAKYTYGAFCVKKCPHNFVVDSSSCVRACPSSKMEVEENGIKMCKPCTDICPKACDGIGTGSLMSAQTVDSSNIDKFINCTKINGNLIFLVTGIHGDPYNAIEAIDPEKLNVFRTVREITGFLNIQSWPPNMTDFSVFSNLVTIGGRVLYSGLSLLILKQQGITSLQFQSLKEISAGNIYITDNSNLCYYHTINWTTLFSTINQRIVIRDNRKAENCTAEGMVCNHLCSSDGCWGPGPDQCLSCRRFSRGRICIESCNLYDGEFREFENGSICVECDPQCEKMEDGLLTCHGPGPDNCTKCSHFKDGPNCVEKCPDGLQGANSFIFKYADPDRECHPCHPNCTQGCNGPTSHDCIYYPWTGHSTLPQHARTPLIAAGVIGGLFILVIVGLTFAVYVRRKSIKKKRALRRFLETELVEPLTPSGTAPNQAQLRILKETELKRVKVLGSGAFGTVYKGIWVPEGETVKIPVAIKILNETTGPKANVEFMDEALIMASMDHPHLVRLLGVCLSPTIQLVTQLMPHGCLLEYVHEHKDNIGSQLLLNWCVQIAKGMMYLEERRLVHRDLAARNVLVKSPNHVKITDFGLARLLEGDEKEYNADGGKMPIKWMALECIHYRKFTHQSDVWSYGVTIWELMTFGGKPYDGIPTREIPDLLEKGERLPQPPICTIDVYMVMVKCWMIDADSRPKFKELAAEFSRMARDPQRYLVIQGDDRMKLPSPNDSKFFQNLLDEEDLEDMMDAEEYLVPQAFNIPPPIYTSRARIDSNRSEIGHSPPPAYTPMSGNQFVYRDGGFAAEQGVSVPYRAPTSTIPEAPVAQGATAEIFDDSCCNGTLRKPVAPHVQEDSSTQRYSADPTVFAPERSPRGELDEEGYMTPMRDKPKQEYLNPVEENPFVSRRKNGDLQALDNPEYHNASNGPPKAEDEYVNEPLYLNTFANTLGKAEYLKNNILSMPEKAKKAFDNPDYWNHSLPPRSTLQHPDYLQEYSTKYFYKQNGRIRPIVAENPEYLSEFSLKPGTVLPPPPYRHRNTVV

FER (human) = FER (human) (UniProt P16591)
FGFR1 (human) = FGFR1 (human) (UniProt P11362)
GAK (human) = GAK (human) (UniProt O14976)
HIPK2 (human) = HIPK2 (human) (UniProt Q9H2X6)
IKBKB (human) = IKBKB (human) (UniProt O14920)
[1] = molecular target: JAK1 JH1 catalytic (human) (UniProt P23458)
[2] = molecular target: JAK3 JH1 catalytic (human) (UniProt P52333)
MAP2K2 (human) = MAP2K2 (human) (UniProt P36507)
Chain of MAP2K2 (human) (P36507 whole entry, looked up): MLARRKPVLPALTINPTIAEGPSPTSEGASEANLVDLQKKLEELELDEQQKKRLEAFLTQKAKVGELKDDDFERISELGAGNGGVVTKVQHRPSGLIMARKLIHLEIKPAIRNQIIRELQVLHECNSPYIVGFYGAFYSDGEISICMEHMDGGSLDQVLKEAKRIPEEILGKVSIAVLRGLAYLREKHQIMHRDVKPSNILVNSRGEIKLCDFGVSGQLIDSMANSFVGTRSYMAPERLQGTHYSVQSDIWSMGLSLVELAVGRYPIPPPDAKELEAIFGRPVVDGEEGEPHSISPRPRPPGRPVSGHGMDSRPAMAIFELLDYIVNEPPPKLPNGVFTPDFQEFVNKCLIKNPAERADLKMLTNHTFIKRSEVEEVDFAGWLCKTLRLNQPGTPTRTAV

MAP2K3 (human) = MAP2K3 (human) (UniProt P46734)
MAP3K2 (human) = MAP3K2 (human) (UniProt Q9Y2U5)
MAPK1 (human) = MAPK1 (human) (UniProt P28482)
MAPK9 (human) = MAPK9 (human) (UniProt P45984)
MAPKAPK5 (human) = MAPKAPK5 (human) (UniProt Q8IW41)
MELK (human) = MELK (human) (UniProt Q14680)
MLTK (human) = MLTK (human) (UniProt Q9NYL2)
MST1R (human) = MST1R (human) (UniProt Q04912)
NIM1 (human) = NIM1 (human) (UniProt Q8IY84)
Chain of NIM1 (human) (Q8IY84 whole entry, looked up): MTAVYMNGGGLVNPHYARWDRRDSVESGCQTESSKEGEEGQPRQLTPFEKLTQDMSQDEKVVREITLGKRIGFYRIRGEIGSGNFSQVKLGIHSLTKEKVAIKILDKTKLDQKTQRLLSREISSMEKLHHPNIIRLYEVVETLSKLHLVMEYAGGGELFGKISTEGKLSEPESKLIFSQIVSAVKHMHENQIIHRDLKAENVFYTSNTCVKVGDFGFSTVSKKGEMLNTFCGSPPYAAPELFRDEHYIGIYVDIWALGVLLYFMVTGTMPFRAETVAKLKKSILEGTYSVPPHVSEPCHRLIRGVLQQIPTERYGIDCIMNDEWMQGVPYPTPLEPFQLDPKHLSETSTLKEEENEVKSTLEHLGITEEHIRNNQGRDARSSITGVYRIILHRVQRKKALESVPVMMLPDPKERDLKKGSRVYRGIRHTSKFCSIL

NLK (human) = NLK (human) (UniProt Q9UBE8)
PAK6 (human) = PAK6 (human) (UniProt Q9NQU5)
PI4KB (human) = PI4KB (human) (UniProt Q9UBF8)
PIM3 (human) = PIM3 (human) (UniProt Q86V86)
PIP4K2B (human) = PIP4K2B (human) (UniProt P78356)
Chain of PIP4K2B (human) (P78356 whole entry, looked up): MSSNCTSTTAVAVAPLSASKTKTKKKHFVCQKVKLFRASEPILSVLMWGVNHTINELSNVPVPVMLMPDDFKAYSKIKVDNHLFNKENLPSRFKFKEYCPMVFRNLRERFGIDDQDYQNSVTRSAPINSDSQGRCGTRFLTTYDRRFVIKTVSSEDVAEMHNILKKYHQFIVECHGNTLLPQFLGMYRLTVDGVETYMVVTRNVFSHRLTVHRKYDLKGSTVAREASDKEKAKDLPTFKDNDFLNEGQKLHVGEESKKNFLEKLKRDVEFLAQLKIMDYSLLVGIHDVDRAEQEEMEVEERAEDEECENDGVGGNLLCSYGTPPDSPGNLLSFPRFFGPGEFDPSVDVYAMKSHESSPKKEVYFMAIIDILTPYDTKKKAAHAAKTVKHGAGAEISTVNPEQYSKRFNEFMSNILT

PKN1 (human) = PKN1 (human) (UniProt Q16512)
PRKD2 (human) = PRKD2 (human) (UniProt Q9BZL6)
PTK6 (human) = PTK6 (human) (UniProt Q13882)
RIOK1 (human) = RIOK1 (human) (UniProt Q9BRS2)
RIPK2 (human) = RIPK2 (human) (UniProt O43353)
STK11 (human) = STK11 (human) (UniProt Q15831)
STK38L (human) = STK38L (human) (UniProt Q9Y2H1)
Chain of STK38L (human) (Q9Y2H1 whole entry, looked up): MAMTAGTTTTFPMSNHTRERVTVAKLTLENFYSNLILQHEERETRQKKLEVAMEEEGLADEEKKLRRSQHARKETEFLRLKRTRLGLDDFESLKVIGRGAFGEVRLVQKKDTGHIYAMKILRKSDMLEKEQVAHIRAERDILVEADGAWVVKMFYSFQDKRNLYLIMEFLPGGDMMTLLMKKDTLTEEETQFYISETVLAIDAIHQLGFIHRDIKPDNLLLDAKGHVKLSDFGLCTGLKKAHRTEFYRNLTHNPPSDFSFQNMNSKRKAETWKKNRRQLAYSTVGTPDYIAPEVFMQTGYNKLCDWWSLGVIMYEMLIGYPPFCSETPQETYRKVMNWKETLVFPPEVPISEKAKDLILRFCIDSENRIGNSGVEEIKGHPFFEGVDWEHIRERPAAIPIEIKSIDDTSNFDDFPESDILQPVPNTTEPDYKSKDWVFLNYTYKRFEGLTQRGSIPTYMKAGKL

TGFBR2 (human) = TGFBR2 (human) (UniProt P37173)

O=c1[nH]c2ccccc2n1C1CCN(Cc2ccc(-c3nc4cc5[nH]cnc5cc4nc3-c3ccccc3)cc2)CC1
kinase still bound, per cent of control (BLK (human)): 76% | kinase still bound, per cent of control (CDK14 (human)): 100% | kinase still bound, per cent of control (CHUK (human)): 75% | kinase still bound, per cent of control (CSF1R (human)): 99% and 76% | kinase still bound, per cent of control (CSNK1E (human)): 15% | kinase still bound, per cent of control (CSNK1G2 (human)): 59% | kinase still bound, per cent of control (CSNK1G3 (human)): 93% | kinase still bound, per cent of control (DCLK2 (human)): 92% | kinase still bound, per cent of control (EPHA8 (human)): 95% | kinase still bound, per cent of control (ERBB4 (human)): 66% | kinase still bound, per cent of control (FER (human)): 83% | kinase still bound, per cent of control (FGFR1 (human)): 73% | kinase still bound, per cent of control (GAK (human)): 88% | kinase still bound, per cent of control (HIPK2 (human)): 88% | kinase still bound, per cent of control (IKBKB (human)): 79% | kinase still bound, per cent of control [1]: 100% | kinase still bound, per cent of control [2]: 95% | kinase still bound, per cent of control (MAP2K2 (human)): 75% | kinase still bound, per cent of control (MAP2K3 (human)): 100% | kinase still bound, per cent of control (MAP3K2 (human)): 100% | kinase still bound, per cent of control (MAPK1 (human)): 100% | kinase still bound, per cent of control (MAPK9 (human)): 91% | kinase still bound, per cent of control (MAPKAPK5 (human)): 59% | kinase still bound, per cent of control (MELK (human)): 77% | kinase still bound, per cent of control (MLTK (human)): 92% | kinase still bound, per cent of control (MST1R (human)): 100% | kinase still bound, per cent of control (NIM1 (human)): 71% | kinase still bound, per cent of control (NLK (human)): 87% | kinase still bound, per cent of control (PAK6 (human)): 85% | kinase still bound, per cent of control (PI4KB (human)): 60% | kinase still bound, per cent of control (PIM3 (human)): 100% | kinase still bound, per cent of control (PIP4K2B (human)): 88% | kinase still bound, per cent of control (PKN1 (human)): 100% | kinase still bound, per cent of control (PRKD2 (human)): 95% | kinase still bound, per cent of control (PTK6 (human)): 100% | kinase still bound, per cent of control (RIOK1 (human)): 76% | kinase still bound, per cent of control (RIPK2 (human)): 64% | kinase still bound, per cent of control (STK11 (human)): 94% | kinase still bound, per cent of control (STK38L (human)): 82% | kinase still bound, per cent of control (TGFBR2 (human)): 100%
